Results: patent publication US20060239915A1, “Labeled macrophage scavenger receptor antagonists for imaging cardiovascular diseases” (priority 2002, published 2006)
Like-named read-outs stand apart in the source and are kept apart here.

Assays:
[1] = target: T1, human SR-A on CHO-SRA cells (Homo sapiens, UniProt P21757); assay: Cell competition assay with 125I-imaging agent 2, CHO-SRA cells; settings: competition for binding of 125I imaging agent 2, CHO-SRA cells, n=3; read-out: Mean IC50 (one site competition)
T1 construct: expressed in transfected cells; host or cells: CHO (hamster ovary) cells, line CHO-SRA
T1 sequence (P21757 1-451): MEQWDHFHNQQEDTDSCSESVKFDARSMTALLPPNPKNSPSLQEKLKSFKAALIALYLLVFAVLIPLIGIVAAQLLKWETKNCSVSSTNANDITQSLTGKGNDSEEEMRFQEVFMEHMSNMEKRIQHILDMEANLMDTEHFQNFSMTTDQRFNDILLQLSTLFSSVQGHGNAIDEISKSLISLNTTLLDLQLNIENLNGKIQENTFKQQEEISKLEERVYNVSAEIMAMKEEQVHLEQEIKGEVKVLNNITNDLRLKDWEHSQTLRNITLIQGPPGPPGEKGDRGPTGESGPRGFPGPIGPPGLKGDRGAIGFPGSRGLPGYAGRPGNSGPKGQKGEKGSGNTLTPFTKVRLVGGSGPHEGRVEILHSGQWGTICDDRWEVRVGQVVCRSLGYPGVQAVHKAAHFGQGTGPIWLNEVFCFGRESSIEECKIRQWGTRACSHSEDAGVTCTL
Experimental: (§1) Experiments were carried out in THP-1 and CHO-SRA cells to assess competition for binding of ^125I imaging agent 2 by acLDL, oxLDL and non-radioactive imaging agent 2.
CHO-SRA cells are adherent hamster ovary cells expressing human SR-A and were cultured in Hams F-12 medium containing penicillin/streptomycin, 2 mM glutamine, HEPES buffer (7 ml per 500 ml media), 3% filter-sterilised lipoprotein-deficient serum (LPDS; Sigma cat. no. S5394), 40 μM compactin/mevastatin (Sigma cat. no. M2537), 250 μM mevalonic acid lactone (Sigma cat. no. M4667), and 3 μg/ml acetylated LDL (AcLDL; Biogenesis, Cat no. 5685-3404). For assays with ^125I-acLDL, cells were seeded at 1×10^5 cells/well/ml in 24 well plates 24 hours prior to assay. For assays with ^125I imaging agent 2, CHO-SRA cells were seeded at 1.5×10^5 cells/well/ml in 24 well plates 24 hours prior to assay.

MSRA on THP-1 cells = target: T2, MSRA on THP-1 cells (Homo sapiens, UniProt P21757); assay: Cell competition assay with 125I-imaging agent 2, THP-1 cells; settings: competition for binding of 125I imaging agent 2, THP-1 cells, n=3
T2 construct: Cells became adherent and expressed MSRA; endogenous in cells; host or cells: THP-1 (ECACC), differentiated with PMA
T2 sequence (P21757 1-451): T1 sequence (P21757 1-451)
Experimental: Experiments were carried out on THP-1 cells. THP-1 cells (human monocyte ECACC) are suspension cells and were cultured in RPMI-1640 medium (Sigma, Cat no. R0883) containing penicillin/streptomycin (Sigma, Cat no. P4458), 2 mM glutamine (Sigma, Cat no. G7513) and 10% foetal bovine serum (FBS; Sigma, Cat no. F-7524). Cells were routinely passaged at 2×10^5 cells/ml in 162 cm^2 flasks. For assays with ^125I-acLDL, cells were seeded at 1×10^5 cells/well/ml in 24 well plates 4-6 days prior to assay and 400 ng/ml phorbol myristate acetate (PMA) added to differentiate THP-1 cells. Cells became adherent and expressed MSRA. For assays with ^125I imaging agent 2, THP-1 cells were seeded at 1.5×10^5 cells/well/ml in 24 well plates 4-6 days prior to assay with 400 ng/ml PMA.
as §1
THP-1 cells were cultured as described in Example 13 above.

SMILES: O=C(Nc1ccc(I)cc1)c1cc(Br)ccc1NS(=O)(=O)c1ccc(Cl)cc1 [non-radioactive imaging agent 2]
- IC50 [1]: 30 ± 12 µM
- IC50 (MSRA on THP-1 cells; read-out: Mean IC50 (two site kinetics, first value)): 0.079 ± 0.02 µM
- IC50 (MSRA on THP-1 cells; read-out: Mean IC50 (two site kinetics, second value)): 14.5 ± 5.8 µM
